This is an account of results in patent US20140341857A1, “COMBINATION OF ONCOLYTIC AD[…] HISTONE DEACETYLASE INHIBITORS” (INSTITUT GUSTAVE ROUSSY, priority 2011, published 2014).

SMILES strings stand for the structures.

Data set [1] relates to HT29 cells. Nature of the data set: LDH release cell death assay. It is filed as cell-based. The following applies: HT29, day 3, CRAd MOI 15.6 or VPA IC25/IC50 alone. The source says:
Colon carcinoma HT29 cells were untreated or treated with CRAd (MOI 15.6 vp/cell), VPA (IC25 or IC50) or both. After 3 days, cell death was quantified by determination of Lactate deshydrogenase (LDH) release in cell supernatant, using Tox Cytotoxicity Assay kit (TOX7, Sigma Aldrich, France). The results were expressed relative to total LDH level obtained with cells treated with identical conditions and permeabilized with triton 0.1%. The results (Mean+SD) are shown on FIG. 7. They are representative of two experiments.
Background: Release of lactate dehydrogenase indicates damage to the cell membrane.

Another data set deals with HT29 tumor xenografts. Nature of the data set: HT29 tumor xenograft growth in nude mice. It is filed as in vivo, athymic NU/NU female mice. On the procedure:
HT29 cells (10^7 cells) in 100 μl PBS were injected subcutaneously into the right flank of athymic NU/NU female mice housed at the Institut Gustave Roussy.
First, the sensitivity of tumor xenografts to VPA treatment was evaluated. When tumors reached 70-100 mm^3, mice were injected intraperitoneally with VPA (200 mg/kg or 300 mg/kg) or PBS in a volume of 200 μl five consecutive days per week. Tumor volume was evaluated twice a week for 4 weeks by measuring with calipers.
In a second series of experimentation, when tumors reached 70-100 mm^3, mice were first injected subcutaneously with Δ24 CRAd, or with a non-replicative adenovirus (AdCO1, deleted of region E1) or with PBS three consecutive days and every 7 days for 4 weeks. In parallel and beginning at day 4, mice received intraperitoneal injection of VPA (300 mg/kg) or PBS in a volume of 200 μl five consecutive days per week until the end of the protocol. Tumor growth was measured twice a week for 4 weeks.

The next data set concerns HT29. Nature of the data set: MTT assay, growth inhibition by HDACi after 48 h. It is filed as cell-based. Conditions: Homo sapiens, HT-29, HT29, 48 h of treatment. The source says: (§1) HT29, HCT116, SW480, SW620 colon adenocarcinomas cell lines, 911 human embryonic retinal cell lines and HEK293, a human embryonic kidney cell line expressing the adenoviral E1 protein were purchased from ATCC (American Tissue Culture Collection, Manassas, Va., USA).
HT29 and 911 were maintained in Dulbecco's modified Eagle's medium (DMEM; GIBCO) supplemented with 10% heat-inactivated fetal bovine serum (FBS; GIBCO).
(§2) First, three different histone deacetylase inhibitors: Trichostatin A (TSA), an hydroxamic acid; Valproic Acid (VPA), a short-chain aliphatic acid, and sodium butyrate (Nabu), a short-chain aliphatic acid, were evaluated for their ability to induce inhibition of the growth of these cells after 48 h of treatment using an MTT assay.
On the technique in general: Formazan colour is commonly taken as a measure of viable cells.

The test system of another data set is SW620. Nature of the data set: MTT assay, growth inhibition by HDACi after 48 h. It is filed as cell-based. The following applies: Homo sapiens, SW-620, SW620, 48 h of treatment. On the procedure: as §1
(§3) The same medium was used for SW480 and SW620 supplemented with 1 mM Sodium Pyruvate (Invitrogen/GIBCO)
as §2

Another data set deals with SW480. The data set can be described thus: MTT assay, growth inhibition by HDACi after 48 h. It is filed as cell-based. The following applies: Homo sapiens, SW480, 48 h of treatment. On the procedure: as §1, §3, §2
Data set [2] has as its system HT29 cells. Nature of the data set: Cell size and nucleus morphology, Giemsa staining. It is filed as cell-based. Conditions: HT29, 72 h, CRAd MOI 15.6, VPA IC25/IC50. On the procedure:
HT29 cells in 6-well plates (5·10^5 cells/well) were untreated or treated with Δ24 CRAd (MOI 15.6 vp/cell), VPA (IC25, IC50) or both. After 72 h, cells were harvested, cytospined on slides, fixed with Wright and stained for 15 minutes in Giemsa solution. After washing, dry slides were mounted with a coverslip. Cells and nuclei observations were performed using phase-contrast microscopy.

Another data set relates to viral hexon protein. Nature of the data set: Immunohistochemistry of viral hexon protein in HT29 tumor xenografts. Conditions: tumors excised at day 10, VPA 300 mg/kg. It is filed as in vivo, mice. On the procedure: The effects of VPA on CRAd replication were also tested in vivo in HT29 tumor xenografts of mice injected with PBS, Δ24 CRAd, or VPA (300 mg/kg)+CRAd as described in Example 2 above. Tumors were excised at day 10, and expression of viral hexon protein was evaluated by immunohistochemistry. Tumors were fixed in FineFix (from IGR) paraffin-embedded, and cut into 4-μm-thick sections. Hematoxylin-eosin-safranin staining was performed on all of the xenografts for analysis of morphology. The polyclonal anti-adenovirus hexon protein antibody AB 1056 (CHEMICON INTERNATIONAL, Temecula, Calif.), diluted 1:300, was detected by a biotinylated rabbit antigoat immunoglobulin antibody streptavidin-horseradish peroxidase conjugate (DAKO), and the chromogen diaminobenzidine. Slides were counterstained with hematoxylin.

The subject of data set [3] is E1A and fiber adenoviral proteins. The data set can be described thus: Western blot of early (E1A) and late (fiber) adenoviral proteins in HT29 cells. It is filed as cell-based. On the procedure:
For determining viral protein expression, HT29 cells (5·10^5) in MW6 medium were treated with Δ24 CRAd (MOI 15.6 vp/cell), with or without VPA. At different time points p.i. (24 h, 48 h, and 72 h), tumor cells were harvested and protein extracts were prepared in RIPA buffer (10 mM Tris base pH 8.8, NaCl 150 mM, EDTA 1 mM, NP-40 1%, deoxycholic acid 1%) supplemented with mini EDTA proteases (Roche laboratory). In order to quantify the expression of early (E1A) and late (fiber) adenoviral proteins, proteins (25 μg) were run into a NuPage (Invitrogen, France), transferred onto a nitrocellulose membrane, and probed with anti-fiber antibody (AB4 clone 4D2, THERMOSCIENTIFIC), anti-E1A antibody (sc-430, Santa Cruz), or (as a control) anti-actin antibody (Clone AC-15, SIGMA-ALDRICH) followed by HRP-conjugated secondary antibody.

The next data set relates to HCT116. The data set can be described thus: MTT assay, growth inhibition by HDACi after 48 h. It is filed as cell-based. The following applies: Homo sapiens, HCT-116, HCT116, 48 h of treatment. On the procedure:
as §1
HCT116 were cultured, in Mc Coy's 5A mediums with 10% heat-inactivated-FBS.
as §2

For orientation: IC50 means the concentration that gives 50% inhibition. A low value points to inhibition by little substance. As for `CCCC(CCC)C(=O)O` [VPA, Valproic Acid], the “LDH release compared to untreated cells” value with HT29 cells [1] is listed as “increase in LDH release”. Also, the “kinetic of tumor growth vs PBS” value with HT29 tumor xenografts (VPA 200 mg/kg intraperitoneally, five consecutive days per week, 4 weeks) was “No difference”. Also, in the data set on HT29 tumor xenografts (VPA 300 mg/kg intraperitoneally, five consecutive days per week, 4 weeks), the “tumor growth vs PBS” value is reported as “significant delay in tumor growth”. The toxicity result in the data set with HT29 tumor xenografts (VPA 300 mg/kg intraperitoneally, mice) is given as “did not trigger significant toxicity”. The “tumor growth compared to PBS-injected mice” value with HT29 tumor xenografts (second series: virus subcutaneously three consecutive days every 7 days, VPA 300 mg/kg i.p. from day 4, 4 weeks) is “reduction of tumor growth”. Besides, the IC50 is 10 mM in the data set with HT29, 5 mM with SW620, 10 mM in the data set with SW480 and 1.2 mM in the data set with HCT116. Moreover, the “cell size and nucleus morphology” value with HT29 cells [2] was “increase in cell size and cell nuclei with well-defined shape”. Moreover, in the data set on viral hexon protein, the “amount of hexon protein in the tumor” value is recorded as “decreased”. For the same compound, the E1A expression result in data set [3] (HT29, CRAd MOI 15.6, 24 h, 48 h, 72 h) is given as “did not modify E1A expression”. Further, the “expression of the fiber protein” value was “strongly diminished” in data set [3] (HT29, CRAd MOI 15.6, day 1); “minor effect” in data set [3] (HT29, CRAd MOI 15.6, day 2 and 3).
